The test system of series [1] is secondary iron overload from multiple transfusions. The conditions noted are these: cited from earlier work.
Series [2] can be described thus: stability as solid and in concentrated solution. The series is classed as physicochemical.
For series [3] the following is noted: association constant; cited from earlier work.
For series [4] the following is noted: cited from earlier work.
For series [5] the following is noted: association constant; cited from earlier work. The source holds these as a separate data set.

In the case of `CC(=O)N(O)CCCCCNC(=O)CCC(=O)N(O)CCCCCNC(=O)CCC(=O)N(O)CCCCCN` [Deferoxamine B, N′-[5-[[4-[[5-(acetylhydroxyamino)pentyl]amino]-1,4-dioxobutyl]hydroxyamino]pentyl]-N-(5-aminopentyl)-N-hydroxy-butanediamide], in series [1] (long term therapy), the “accumulation of hepatic iron” value was “slows accumulation of hepatic iron” and the “progression of hepatic fibrosis” value is recorded as “retards or eliminates progression of hepatic fibrosis”. Further, the iron excretion result in series [1] (patients with secondary iron overload from multiple transfusions) is on record as “promotes iron excretion”. Moreover, the stability in solution result in series [2] (concentrated solution, on evaporation) is “prone to decomposition in concentrated solution”. Moreover, the stability as solid result in series [2] (solid) is on record as “reasonably stable solid”. Also, the “affinity for ferric iron (Ka)” value in series [3] is listed as 10^31. The oral absorption result in series [4] is recorded as “not well-absorbed orally”. Also, the “affinity for calcium (Ka)” value in series [5] was 10^2.
